# Reference: patent US11331369B2, “Endoparasitic depsipeptides” (Zoetis Services LLC, priority 2017, dated 2022)
# Like-named read-outs stand apart in the source and are kept apart here.
# How the values were obtained:
# [1] = tested on: circulating microfilariae (Dirofilaria immitis); assay: Heartworm Positive Dog Studies (effects on circulating microfilariae, clinical observations); details: for Mean MF/mL, Day 0 Pre-dose / Mean MF/mL, Day 0 Post-dose, 2 hours / Mean MF/mL, Day 1 / Mean MF/mL, Day 7 / Mean MF/mL, Day 14 / Mean MF/mL, Day 21: blood, 3 dogs/treatment; for Mean MF/mL, Day 0 Pre-dose: baseline before oral dose; for Mean MF/mL, Day 0 Post-dose, 2 hours / Mean MF/mL, Day 1 / Mean MF/mL, Day 7 / Mean MF/mL, Day 14 / Mean MF/mL, Day 21: oral dose (emodepside and 1b-14 1 mg/kg, 1b-25 up to 3 mg/kg); for Mean MF/mL, Day 0 Post-dose, 2 hours / % Reduction of circulating microfilariae, Day 0 Post-dose, 2 hours: 2 hours post-dose; for % Reduction of circulating microfilariae, Day 0 Post-dose, 2 hours / % Reduction of circulating microfilariae, Day 1 / % Reduction of circulating microfilariae, Day 7 / % Reduction of circulating microfilariae, Day 14 / % Reduction of circulating microfilariae, Day 21: vs pre-dose (Day 0) counts, oral dose
# [2] = Canine pharmacokinetic (PK) study, single IV or oral dose; details: dog; for Vd / clearance / half-life / Cmax: in vivo; for Vd / clearance / half-life: iv, 0.2 mg/kg; for Cmax: po, 1 mg/kg; for F: oral 1 mg/kg
# [3] = tested on: microfilariae of Dirofilaria immitis; assay: Dirofilaria immitis, Microfilaria (DiMF) In vitro Assay; format: cell-based; details: 72 h, read-out: DiMF Minimum Effective Dose (MED), approximately 72 hours incubation, microfilariae assessed for survival or paralysis
# [4] = tested on: third stage larvae of Haemonchus contortus; assay: Haemonchus contortus L3 (HcL3) Assay; format: cell-based; details: 96 h, read-out: HcL3 Minimum Effective Dose (MED)
# [5] = tested on: 4th stage larvae (L4) of Dirofilaria immitis; assay: Dirofilaria immitis, L4 Stage (DiL4) In Vitro Assay; format: cell-based; details: for minimal effective concentration: Dirofilaria immitis, 72 h, read-out: DiL4 Minimum Effective Dose (MED), approximately 72 hours incubation, L4 larvae assessed for survival or paralysis
# [6] = tested on: circulating microfilariae (Dirofilaria immitis); details: dog, in vivo, po, 1 mg/kg
SMILES,"Mean MF/mL, Day 0 Pre-dose ([1]; heartworm positive dogs)","Mean MF/mL, Day 0 Post-dose, 2 hours ([1]; heartworm positive dogs)","Mean MF/mL, Day 1 ([1]; heartworm positive dogs)","Mean MF/mL, Day 7 ([1]; heartworm positive dogs)","Mean MF/mL, Day 14 ([1]; heartworm positive dogs)","Mean MF/mL, Day 21 ([1]; heartworm positive dogs)","% Reduction of circulating microfilariae, Day 0 Post-dose, 2 hours [1] [%]","% Reduction of circulating microfilariae, Day 1 [1] [%]","% Reduction of circulating microfilariae, Day 7 [1] [%]","% Reduction of circulating microfilariae, Day 14 [1] [%]","% Reduction of circulating microfilariae, Day 21 [1] [%]",Vd [2] [L/kg],clearance [2] [mL/min/kg],half-life [2] [h],Cmax [2] [ng/mL],F [2] [%],minimal effective concentration [3] [µM],minimal effective concentration [4] [µM],minimal effective concentration [5] [µM],other results
"CC(C)C[C@H]1C(=O)O[C@H](Cc2ccc(Cn3nc(C4CC4)cc3C3CC3)cc2)C(=O)N(C)[C@@H](CC(C)C)C(=O)O[C@H](C)C(=O)N(C)[C@@H](CC(C)C)C(=O)O[C@H](Cc2ccc(Cn3nc(C4CC4)cc3C3CC3)cc2)C(=O)N(C)[C@@H](CC(C)C)C(=O)O[C@H](C)C(=O)N1C [Example 1b-14, (3S,6R,9S,12R,15S,18R,21S,24R)-6,18-bis({4-[(3,5-dicyclopropyl-1H-pyrazol-1-yl)methyl]phenyl}methyl)-4,10,12,16,22,24-hexamethyl-3,9,15,21-tetrakis(2-methylpropyl)-1,7,13,19-tetraoxa-4,10,16,22-tetraazacyclotetracosan-2,5,8,11,14,17,20,23-octaone]","15,000 MF/mL","20,000 MF/mL","14,000 MF/mL","15,000 MF/mL","33,000 MF/mL","28,000 MF/mL",−33,7,0,−120,−87,2.7,0.9,138,111,10,0.3,–,–,"adverse effects / clinical observations ([1]; heartworm positive dogs, 1 mg/kg (po)): no adverse clinical observations noted; average MF counts on day 21 ([1]; heartworm positive dogs, 1 mg/kg (po), 15,000 MF/mL of blood pre-dose): 28,000 MF/mL of blood; effects on circulating MF counts ([1]; heartworm positive dogs, 1 mg/kg (po), throughout the dog study): no significant effects on circulating MF counts"
"CC(C)C[C@H]1C(=O)O[C@H](Cc2ccc(Cn3cc(Br)cn3)cc2)C(=O)N(C)[C@@H](CC(C)C)C(=O)O[C@H](C)C(=O)N(C)[C@@H](CC(C)C)C(=O)O[C@H](Cc2ccc(Cn3cc(Br)cn3)cc2)C(=O)N(C)[C@@H](CC(C)C)C(=O)O[C@H](C)C(=O)N1C [Example 1b-25, (3S,6R,9S,12R,15S,18R,21S,24R)-6,18-bis[[4-[(4-bromopyrazol-1-yl)methyl]phenyl]methyl]-3,9,15,21-tetraisobutyl-4,10,12,16,22,24-hexamethyl-1,7,13,19-tetraoxa-4,10,16,22-tetrazacyclotetracosane-2,5,8,11,14,17,20,23-octaone]","32,000 MF/mL","34,000 MF/mL","26,000 MF/mL","27,000 MF/mL","40,000 MF/mL","46,000 MF/mL",−6,19,16,−25,−44,3,2,110,152,12,–,10 to 100,–,"adverse effects / clinical observations ([1]; heartworm positive dogs, dosed up to 3 mg/kg (po)): no adverse effects observed; effects on circulating MF counts ([1]; heartworm positive dogs, dosed up to 3 mg/kg (po), out to day 21 post-dose): no significant effects on circulating MF counts; selectivity ratio (DiMF/DiL4) ([5]; ratio of DiMF MED to DiL4 MED): about 8.3"
"CC(C)C[C@H]1C(=O)O[C@H](Cc2ccc(N3CCOCC3)cc2)C(=O)N(C)[C@@H](CC(C)C)C(=O)O[C@H](C)C(=O)N(C)[C@@H](CC(C)C)C(=O)O[C@H](Cc2ccc(N3CCOCC3)cc2)C(=O)N(C)[C@@H](CC(C)C)C(=O)O[C@H](C)C(=O)N1C [emodepside, reference compound]","61,000 MF/mL","8,300 MF/mL","4,500 MF/mL","8,800 MF/mL","13,000 MF/mL","13,000 MF/mL",86,93,86,79,79,–,–,–,–,–,0.03,–,0.03,"average MF counts at 2 hours post-dose ([1]; heartworm positive dogs, 1 mg/kg (po), 61,000 MF/mL of blood pre-dose): 8,300 MF/mL of blood; decrease of average MF counts at 2 hours post-dose ([1]; heartworm positive dogs, 1 mg/kg (po), versus pre-dose): ~86%; adverse effects / clinical observations [6]: all treated dogs exhibited adverse effects consistent with dead or dying circulating microfilariae"
"CCOc1cnn(Cc2ccc(C[C@H]3OC(=O)[C@H](CC(C)C)N(C)C(=O)[C@@H](C)OC(=O)[C@H](CC(C)C)N(C)C(=O)[C@@H](Cc4ccc(Cn5cc(OCC)cn5)cc4)OC(=O)[C@H](CC(C)C)N(C)C(=O)[C@@H](C)OC(=O)[C@H](CC(C)C)N(C)C3=O)cc2)c1 [Example 1b-21, (3S,6R,9S,12R,15S,18R,21S,24R)-6,18-bis[[4-[(4-ethoxypyrazol-1-yl)methyl]phenyl]methyl]-3,9,15,21-tetraisobutyl-4,10,12,16,22,24-hexamethyl-1,7,13,19-tetraoxa-4,10,16,22-tetrazacyclotetracosane-2,5,8,11,14,17,20,23-octaone]",–,–,–,–,–,–,–,–,–,–,–,28.4,15.5,36.1,145,78,0.001 to 0.01,1 to 10,0.0001 to 0.001,–
"CC(C)C[C@H]1C(=O)O[C@H](Cc2ccc(Cn3nccc3C3CC3)cc2)C(=O)N(C)[C@@H](CC(C)C)C(=O)O[C@H](C)C(=O)N(C)[C@@H](CC(C)C)C(=O)O[C@H](Cc2ccc(Cn3nccc3C3CC3)cc2)C(=O)N(C)[C@@H](CC(C)C)C(=O)O[C@H](C)C(=O)N1C [Example 1b-108, (3S,6R,9S,12R,15S,18R,21S,24R)-6,18-bis(4-((5-cyclopropyl-1H-pyrazol-1-yl)methyl)benzyl)-3,9,15,21-tetraisobutyl-4,10,12,16,22,24-hexamethyl-1,7,13,19-tetraoxa-4,10,16,22-tetraazacyclotetracosan-2,5,8,11,14,17,20,23-octaone]",–,–,–,–,–,–,–,–,–,–,–,5.6,6,51,178,30,0.001 to 0.01,≤ 1,0.0001 to 0.001,–
"CC(C)C[C@H]1C(=O)O[C@H](Cc2ccc(Cn3cc(OC(C)C)cn3)cc2)C(=O)N(C)[C@@H](CC(C)C)C(=O)O[C@H](C)C(=O)N(C)[C@@H](CC(C)C)C(=O)O[C@H](Cc2ccc(Cn3cc(OC(C)C)cn3)cc2)C(=O)N(C)[C@@H](CC(C)C)C(=O)O[C@H](C)C(=O)N1C [Example 1b-19, (3S,6R,9S,12R,15S,18R,21S,24R)-3,9,15,21-tetraisobutyl-6,18-bis[[4-[(4-isopropoxypyrazol-1-yl)methyl]phenyl]methyl]-4,10,12,16,22,24-hexamethyl-1,7,13,19-tetraoxa-4,10,16,22-tetrazacyclotetracosane-2,5,8,11,14,17,20,23-octaone]",–,–,–,–,–,–,–,–,–,–,–,7.25,2.4,87,267,24,0.001 to 0.01,1 to 10,0.001 to 0.01,–
